# Data taken from patent US7981903B2, “2-[2-{phenylamino}-1H-pyrrolo[2,3-D]pyrimidin-4-yl)amino] benzamide derivatives as IGF-1R inhibitors for the treatment of cancer” (GlaxoSmithKline LLC, priority 2007, dated 2011).
# pIC50: −log10 of the molar value. Where “and” joins values, the source holds several entries; their conditions need not be identical. Identical values can stand only once.
# Assays:
# [1] = biological target: T1, NIH-3T3 cells overexpressing human IGF-1R (Homo sapiens, UniProt P08069); assay: IGF-1R cellular autophosphorylation (DELFIA); type: cell-based
# T1 construct: expressed in transfected cells; host or cells: NIH-3T3 (mouse fibroblasts)
# In short: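 Receptor autophosphorylation measured by DELFIA, capturing IGF-1R or IRβ and detecting with europium anti-pTyr, reported as percent of IGF-1- or insulin-stimulated signal. Compounds (30 uM to 1.5 nM) added 2 h before ligand, then 15 min stimulation (IGF-1 30 ng/ml or insulin 3 ug/ml).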
# human IGF1R (hIGF1R) = biological target: T2, human IGF1R (hIGF1R) (Homo sapiens, UniProt P08069); assay: TR-FRET kinase assay of purified hIGF1R; type: biochemical; settings: activated hIGF1R 0.5 nM, 10 μM ATP, values given as pIC50 category, read-out: IGF-1R pIC50 (converted)
# T2 construct: containing amino acid residues 957-1367 of human IGF1R; made in house; host or cells: Sf9 cells (baculovirus)
# human IR (hIR) = biological target: T3, human IR (hIR) (Homo sapiens, UniProt P06213); assay: TR-FRET kinase assay of purified hIR; type: biochemical; settings: activated hIR 0.5 nM, 10 μM ATP, values given as pIC50 category
# T3 construct: containing amino acid residues 979-1382 of human IR; made in house; host or cells: Sf9 cells (baculovirus), same process as hIGF1R
# T3 sequence (P06213 979-1382): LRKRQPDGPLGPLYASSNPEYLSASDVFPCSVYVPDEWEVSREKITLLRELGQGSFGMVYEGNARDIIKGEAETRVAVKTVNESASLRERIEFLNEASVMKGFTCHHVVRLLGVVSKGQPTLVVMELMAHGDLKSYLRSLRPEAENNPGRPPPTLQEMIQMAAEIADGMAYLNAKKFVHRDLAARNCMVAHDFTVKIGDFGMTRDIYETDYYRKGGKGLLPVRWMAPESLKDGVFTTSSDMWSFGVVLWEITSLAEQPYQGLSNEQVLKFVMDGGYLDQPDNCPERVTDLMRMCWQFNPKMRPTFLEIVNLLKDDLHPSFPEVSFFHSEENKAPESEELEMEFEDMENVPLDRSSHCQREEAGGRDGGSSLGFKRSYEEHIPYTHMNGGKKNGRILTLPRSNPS
# T2 sequence (P08069 957-1367): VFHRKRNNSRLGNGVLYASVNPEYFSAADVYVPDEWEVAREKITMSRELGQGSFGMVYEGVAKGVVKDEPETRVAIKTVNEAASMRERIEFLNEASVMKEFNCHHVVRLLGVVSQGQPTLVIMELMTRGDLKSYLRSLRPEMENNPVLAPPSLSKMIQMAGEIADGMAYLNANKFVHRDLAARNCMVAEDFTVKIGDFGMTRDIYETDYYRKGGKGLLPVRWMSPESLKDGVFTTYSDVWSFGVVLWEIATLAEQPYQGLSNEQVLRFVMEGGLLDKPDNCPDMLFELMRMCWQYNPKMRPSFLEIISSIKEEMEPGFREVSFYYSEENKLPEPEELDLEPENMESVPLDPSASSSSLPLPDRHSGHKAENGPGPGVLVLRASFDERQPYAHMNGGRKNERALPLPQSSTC
# T1 sequence (P08069 31-1367): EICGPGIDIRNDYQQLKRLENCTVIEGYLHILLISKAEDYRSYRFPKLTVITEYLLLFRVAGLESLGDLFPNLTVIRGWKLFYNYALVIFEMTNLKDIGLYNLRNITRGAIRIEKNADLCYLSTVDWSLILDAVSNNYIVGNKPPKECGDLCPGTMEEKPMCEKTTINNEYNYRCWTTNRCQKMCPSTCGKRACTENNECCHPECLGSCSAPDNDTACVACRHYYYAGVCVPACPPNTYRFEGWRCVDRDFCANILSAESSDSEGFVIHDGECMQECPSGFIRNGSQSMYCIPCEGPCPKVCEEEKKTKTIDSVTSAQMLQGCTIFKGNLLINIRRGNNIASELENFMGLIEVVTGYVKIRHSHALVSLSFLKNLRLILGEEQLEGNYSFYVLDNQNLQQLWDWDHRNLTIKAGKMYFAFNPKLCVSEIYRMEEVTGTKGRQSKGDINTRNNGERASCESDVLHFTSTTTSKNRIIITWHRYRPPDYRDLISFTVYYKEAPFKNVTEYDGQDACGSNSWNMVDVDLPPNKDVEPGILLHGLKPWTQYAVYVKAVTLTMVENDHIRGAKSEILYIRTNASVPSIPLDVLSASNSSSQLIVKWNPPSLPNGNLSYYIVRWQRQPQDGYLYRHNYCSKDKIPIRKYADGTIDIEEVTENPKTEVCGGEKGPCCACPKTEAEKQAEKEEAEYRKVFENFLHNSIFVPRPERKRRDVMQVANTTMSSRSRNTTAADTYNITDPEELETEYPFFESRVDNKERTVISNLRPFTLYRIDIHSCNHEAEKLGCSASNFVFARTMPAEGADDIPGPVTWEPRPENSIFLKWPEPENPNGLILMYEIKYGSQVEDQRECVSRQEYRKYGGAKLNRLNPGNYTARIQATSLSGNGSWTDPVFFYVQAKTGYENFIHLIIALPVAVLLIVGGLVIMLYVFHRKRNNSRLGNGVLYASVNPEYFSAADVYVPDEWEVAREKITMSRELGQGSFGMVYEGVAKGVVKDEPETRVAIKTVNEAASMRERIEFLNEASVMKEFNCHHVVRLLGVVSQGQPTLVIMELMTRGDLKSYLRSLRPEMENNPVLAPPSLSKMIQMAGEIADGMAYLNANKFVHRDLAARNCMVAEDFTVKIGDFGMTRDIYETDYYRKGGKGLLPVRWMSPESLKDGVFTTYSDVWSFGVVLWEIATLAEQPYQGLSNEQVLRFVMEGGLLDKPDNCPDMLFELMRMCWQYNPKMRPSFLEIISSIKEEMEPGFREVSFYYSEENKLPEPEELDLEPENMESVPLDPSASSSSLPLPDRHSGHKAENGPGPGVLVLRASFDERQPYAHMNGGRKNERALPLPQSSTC
SMILES,pIC50 [1],IC50 (human IGF1R (hIGF1R)) [nM],pIC50 (human IR (hIR))
"CNC(=O)c1c(F)cccc1Nc1nc(Nc2cc3c(cc2OC)CCCN3C(=O)CN(C)C)nc2[nH]ccc12 [Example 212, 2-[(2-{[1-(N,N-dimethylglycyl)-6-(methyloxy)-1,2,3,4-tetrahydro-7-quinolinyl]amino}-1H-pyrrolo[2,3-d]pyrimidin-4-yl)amino]-6-fluoro-N-methylbenzamide]",6.30 to 7.00,1.26 to 3.98,8.40 to 8.90
"CNC(=O)c1c(F)cccc1Nc1nc(Nc2cc3c(cc2OC)CCCN3C(=O)CN2CCCCC2)nc2[nH]ccc12 [Example 217, 2-fluoro-N-methyl-6-[(2-{[6-(methyloxy)-1-(1-piperidinylacetyl)-1,2,3,4-tetrahydro-7-quinolinyl]amino}-1H-pyrrolo[2,3-d]pyrimidin-4-yl)amino]benzamide]",> 7.00,1.26 to 3.98,8.40 to 8.90
"COc1cc2c(cc1Nc1nc(Nc3cccc(F)c3C(N)=O)c3cc[nH]c3n1)CN(CCF)CC2 [Example 233, 2-fluoro-6-[(2-{[2-(2-fluoroethyl)-6-(methyloxy)-1,2,3,4-tetrahydro-7-isoquinolinyl]amino}-1H-pyrrolo[2,3-d]pyrimidin-4-yl)amino]benzamide]",6.30 to 7.00,1.26 to 3.98,8.40 to 8.90
"CCC(C)N1CCc2cc(OC)c(Nc3nc(Nc4cccc(F)c4C(N)=O)c4cc[nH]c4n3)cc2C1 (stereo not drawn) [Example 237, 2-fluoro-6-[(2-{[6-(methyloxy)-2-(1-methylpropyl)-1,2,3,4-tetrahydro-7-isoquinolinyl]amino}-1H-pyrrolo[2,3-d]pyrimidin-4-yl)amino]benzamide]",6.30 to 7.00,1.26 to 3.98,8.40 to 8.90
"CNC(=O)c1c(F)cccc1Nc1nc(Nc2cc(NC(=O)CN(C)C)ccc2OC)nc2[nH]ccc12 [Example 245, 2-[(2-{[5-[(N,N-dimethylglycyl)amino]-2-(methyloxy)phenyl]amino}-1H-pyrrolo[2,3-d]pyrimidin-4-yl)amino]-6-fluoro-N-methylbenzamide]",< 6.30,1.26 to 3.98,9.00 to 9.60 and 8.40 to 8.90

# Next, values leading:
pIC50 [1],IC50 (human IGF1R (hIGF1R)) [nM],pIC50 (human IR (hIR)),SMILES
6.30 to 7.00,1.26 to 3.98,8.40 to 8.90,"COc1cc2c(cc1Nc1nc(Nc3cccc(F)c3C(N)=O)c3cc[nH]c3n1)CN(C(C)C)CC2 [Example 236, 2-fluoro-6-[(2-{[2-(1-methylethyl)-6-(methyloxy)-1,2,3,4-tetrahydro-7-isoquinolinyl]amino}-1H-pyrrolo[2,3-d]pyrimidin-4-yl)amino]benzamide]"
< 6.30,1.26 to 3.98,8.40 to 8.90,"COc1cc2c(cc1Nc1nc(Nc3cc(F)cc(F)c3C(N)=O)c3cc[nH]c3n1)CN(CCF)CC2 [Example 239, 2,4-difluoro-6-[(2-{[2-(2-fluoroethyl)-6-(methyloxy)-1,2,3,4-tetrahydro-7-isoquinolinyl]amino}-1H-pyrrolo[2,3-d]pyrimidin-4-yl)amino]benzamide]"
6.30 to 7.00,1.26 to 3.98,9.00 to 9.60 and 8.40 to 8.90,"Cc1cc2c(cc1Nc1nc(Nc3cccc(F)c3C(N)=O)c3cc[nH]c3n1)N(C(=O)CN(C)C)CCC2 [Example 246, 2-[(2-{[1-(N,N-dimethylglycyl)-6-methyl-1,2,3,4-tetrahydro-7-quinolinyl]amino}-1H-pyrrolo[2,3-d]pyrimidin-4-yl)amino]-6-fluorobenzamide]"
6.30 to 7.00,1.26 to 3.98,8.40 to 8.90,"CNC(=O)c1c(F)cccc1Nc1nc(Nc2cc3c(cc2OC)CCN3C(=O)CN(C)C)nc2[nH]cc(F)c12 [Example 253, 2-[(2-{[1-(N,N-dimethylglycyl)-5-(methyloxy)-2,3-dihydro-1H-indol-6-yl]amino}-5-fluoro-1H-pyrrolo[2,3-d]pyrimidin-4-yl)amino]-6-fluoro-N-methylbenzamide]"
